The text below walks through data of patent US20120058997A1, “IMIDAZO[1,2-B]PYRIDAZINE AND PYRAZOLO[1,5-A]PYRIMIDINE DERIVATIVES AND THEIR USE AS PROTEIN KINASE INHIBITORS” (SuperGen, Inc., priority 2006, published 2012).

In test [1] the target is Pim-1 kinase (Homo sapiens, UniProt P11309). Kind of test: Promega Kinase-Glo Pim-1 kinase inhibition assay.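 Further: in vitro Pim-1 reaction run 2 h at 30 °C, then leftover ATP measured by luciferase luminescence, where signal falls as kinase activity rises.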 The class given is biochemical. A general note: Kinase-Glo reads ATP consumption through a luciferase reaction.
Chain of Pim-1 kinase (P11309 whole entry): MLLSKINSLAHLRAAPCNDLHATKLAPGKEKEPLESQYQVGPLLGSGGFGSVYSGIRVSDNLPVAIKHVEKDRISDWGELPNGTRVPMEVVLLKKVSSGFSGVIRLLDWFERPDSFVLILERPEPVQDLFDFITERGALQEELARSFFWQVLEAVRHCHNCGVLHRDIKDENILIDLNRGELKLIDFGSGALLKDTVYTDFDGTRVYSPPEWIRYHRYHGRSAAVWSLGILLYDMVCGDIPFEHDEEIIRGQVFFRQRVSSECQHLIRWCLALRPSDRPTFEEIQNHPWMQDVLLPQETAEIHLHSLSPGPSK
In test [2] the test system is K562 Cells. Kind of test: Cell growth inhibition, Cell-Titer-Glo, 96 hours. The class given is cell-based.
The subject of test [3] is PC-3 Cells. Kind of test: Cell growth inhibition, Cell-Titer-Glo, 96 hours. Format: cell-based.
Where [4] appears, read: IC50 (Kinase inhibitory activity), Table V, Pim-1 kinase, Kinase-Glo.
The mark [5] stands for this setting: Homo sapiens, K562, read-out: IC50 K562 Cells (inhibit cell growth to 50% of untreated), Table VI.
Where [6] appears, read: Homo sapiens, read-out: IC50 PC-3 Cells (inhibit cell growth to 50% of untreated), Table VI.
Where [7] appears, read: Table VIII (results), values in uM, read-out: IC50(Kinase).
The mark [8] stands for this setting: Homo sapiens, K562, Table IX (results), read-out: IC50 (K562).
The mark [9] stands for this setting: Homo sapiens, Table IX (results), read-out: IC50 (PC-3).
Where [10] appears, read: Table X, Kinase-Glo, read-out: IC50 on Pim1.

Structures are written as SMILES. Where two headings read alike, the source gives them in different places.
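Wherever IC50 (K562) is given: luminescent ATP signal as an index of viable cell number, drug-treated versus cells given an equal volume of DMSO vehicle.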
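Wherever IC50 (PC-3) is given: luciferase luminescence reflecting cellular ATP, used as a proxy for cell number, with compound-treated cells compared against DMSO vehicle control wells.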

For `NS(=O)(=O)c1ccc(CNc2ccc3ncc(-c4ccc(CCC(=O)O)cc4)n3n2)cc1` [Compound 1-1], the IC50 (usually the point on the concentration scale where inhibition reaches its midpoint) is 4.47 µM in test [1] (setting [4]), over 300 µM in test [2] (setting [5]) and over 300 µM in test [3] (setting [6]).

`CCC(CO)Nc1ccc2ncc(-c3ccc(NS(C)(=O)=O)cc3)n2n1` (stereo not drawn) [Compound 1-3]: the IC50 worked out at 5.35 µM in test [1] (setting [4]), 80.2 µM in test [2] (setting [5]) and 39 µM in test [3] (setting [6]).

As to `Cc1ccc(S(=O)(=O)Nc2ccc(Nc3ccn4ncc(-c5cccc(N)c5)c4n3)cc2)cc1` [Compound 3-9], the concentration for half-maximal inhibition (IC50) in test [2] (setting [5]) was 20.6 µM; in test [3] (setting [6]) it was 12 µM.

As to `Cc1ccc(S(=O)(=O)Nc2ccc(Nc3ccn4ncc(-c5cccc(N(C)C)c5)c4n3)cc2)cc1` [Compound 3-13], the IC50 is 52.1 µM in test [1] (setting [4]), 29.3 µM in test [2] (setting [5]) and 12.8 µM in test [3] (setting [6]).

On to `CCC(CO)Nc1ccc2ncc(-c3ccc(N(C)C)cc3)n2n1` (stereo not drawn) [Compound 7-1], for which the half-inhibitory concentration (IC50) in test [1] (setting [4]) was 3.99 µM; in test [1] (setting [7]), 3.99 µM; in test [2] (setting [8]), 67.1 µM; in test [2] (setting [5]) it was 67.1 µM; in test [3] (setting [9]), 29.2 µM; in test [3] (setting [6]) it was 29.2 µM.

Turning to `CN(C)c1cccc(-c2cnc3ccc(NCCCCO)nn23)c1` [Compound 7-4, 12-(3-(3-(dimethylamino)phenyl)imidazo[1,2-b]pyridazin-6-ylamino)butan-1-ol], the IC50 in test [1] (setting [7]) turned out to be 1.81 µM; in test [2] (Table IX (results), read-out: IC50 (K562)), 13.6 µM; in test [3] (Table IX (results), read-out: IC50 (PC-3)), 54.6 µM.

Take `Fc1ccc(-c2ccc3ncc(-c4ccc(F)cc4)n3n2)cc1` [Compound 7-7]: the IC50 was 9.76 µM in test [1] (setting [7]), 271 µM in test [2] (setting [8]) and 87.2 µM in test [3] (setting [9]).

Regarding `Fc1cccc(-c2ccc3ncc(-c4cccc(F)c4)n3n2)c1` [Compound 7-9], the IC50 in test [1] (setting [7]) was determined as 86.6 µM; in test [2] (setting [8]), 6.76 µM; in test [3] (setting [9]), 21.2 µM.

For `FC(F)(F)Oc1cccc(-c2ccc3ncc(-c4cccc(OC(F)(F)F)c4)n3n2)c1` [Compound 7-13], the figures for the 50% inhibitory concentration (IC50) in test [2] (setting [8]) and in test [3] (setting [9]) were 19.1 µM and 63.2 µM, respectively.

In the case of `Fc1cccc(-c2cnc3ccc(NC4CCCC4)nn23)c1` [Compound 7-15, N-cyclopentyl-3-(3-fluorophenyl)imidazo[1,2-b]pyridazin-6-amine], the results for the half-maximal inhibitory concentration (IC50) in test [1] (setting [7]), in test [2] (setting [8]) and in test [3] (setting [9]) were 5.35 µM, 20.8 µM and 70.2 µM, respectively.

As to `CC[C@@H](N)COc1ccc2ncc(-c3cccc(OC(F)(F)F)c3)n2n1` [Compound 7-18, (R)-1-(3-(3-(trifluoromethoxy)phenyl)imidazo[1,2-b]pyridazin-6-yloxy)butan-2-amine], the 50% inhibitory concentration (IC50) was determined as 0.481 µM in test [1] (Table VIII (results), values in nM, read-out: IC50(Kinase)) and 5.82 µM in test [2] (setting [8]).

`CC(C)N1CCC(CNc2ccc3ncc(-c4cccc(OC(F)(F)F)c4)n3n2)CC1` [Compound 7-35, N-((1-isopropylpiperidin-4-yl)methyl)-3-(3(trifluoromethoxy)phenyl)imidazo[1,2b]pyridazin-6-amine]: the IC50 in test [2] (setting [8]) worked out at 2.92 µM; in test [3] (setting [9]), 12.8 µM.

Consider `CCN1CCC(CNc2nn3c(-c4cccc(OC(F)(F)F)c4)cnc3cc2C)CC1` [Compound 7-38, N-((1-ethylpiperidin-4-yl)methyl)-7-methyl-3-((trifluoromethoxy)phenyl)imidazo [1,2-b]pyridazin-6-amine], for which the IC50 in test [2] (setting [8]) is 1.41 µM; in test [3] (setting [9]) it was 5.68 µM.

For `CCN1CCC(CNc2ccc3ncc(-c4cccc(OC(F)(F)F)c4)n3n2)CC1` [Compound 7-39, N-((1-ethylpiperidin-4-yl)methyl)-3-(3-(trifluoromethoxy)phenyl)imidazo[1,2-b]pyridazin-6-amine], the results for the 50% inhibitory concentration (IC50) in test [2] (setting [8]) and in test [3] (setting [9]) were 1.66 µM and 5.82 µM, respectively.

Take `COc1ccc(OC(F)(F)F)cc1-c1cnc2ccc(NCC3CCN(C)CC3)nn12` [Compound 7-42, 3-(2-methoxy-5-(trifluoromethoxy)phenyl)-N-((1-methylpiperidin-4-yl)methyl)-imidazo[1,2-b]pyridazin-6-amine]: the IC50 in test [2] (setting [8]) stood at 9.6 µM; in test [3] (setting [9]), 8.96 µM.

Regarding `CN1CCC(CNc2ccc3ncc(-c4cc(OC(F)(F)F)ccc4O)n3n2)CC1` [Compound 7-43, 3-(2-hydroxy-5-(trifluoromethoxy)phenyl)-N-((1-methylpiperidin-4-yl)methyl)-imidazo[1,2-b]pyridazin-6-amine], the IC50 in test [1] (setting [7]) was 1.1 µM; in test [2] (setting [8]), 4.9 µM.

Turning to `COc1ccc(OC(F)(F)F)cc1-c1cnc2ccc(NCCC3CCN(C)CC3)nn12` [Compound 7-44, 3-(2-methoxy-5-(trifluoromethoxy)phenyl)-N-(2-(1-methylpiperidin-4-yl)ethyl)-imidazo[1,2-b]pyridazin-6-amine], the IC50 in test [2] (setting [8]) stood at 5.7 µM; in test [3] (setting [9]), 17.7 µM.

For `CN1CCC(CCNc2ccc3ncc(-c4cc(OC(F)(F)F)ccc4O)n3n2)CC1` [Compound 7-45, 3-(2-Hydroxyl-5-(trifluoromethoxy)phenyl)-N-(2-(1-methylpiperidin-4-yl)ethyl)-imidazo[1,2-b]pyridazin-6-amine], the IC50 in test [2] (setting [8]) was 14.9 µM; in test [3] (setting [9]), 52 µM.

Take `CCN1CCC(CNc2ccc3ncc(-c4cc(OC(F)(F)F)ccc4OC)n3n2)CC1` [Compound 7-46, N-((1-ethylpiperidin-4-yl)methyl)-3-(2-methoxy-5-(trifluoromethoxy)phenyl)-imidazol[1,2-b]pyridazin-6-amine]: the results for the half-maximal inhibitory concentration (IC50) in test [2] (setting [8]) and in test [3] (setting [9]) were 5.3 µM and 10.6 µM, respectively.

For `COc1ccc(OC(F)(F)F)cc1-c1cnc2ccc(NCC3CCN(C(C)C)CC3)nn12` [Compound 7-48, N-((1-isopropylpiperidin-4-yl)methyl)-3-(2-methoxy-5-(trifluoromethoxy)phenyl)-imidazo[1,2-b]pyridazin-6-amine], the half-maximal inhibitory concentration (IC50) in test [2] (setting [8]) turned out to be 5.7 µM; in test [3] (setting [9]) it was 17.7 µM.

With `C[C@]1(O)CC[C@H](Nc2ccn3ncc(-c4cccc(OC(F)(F)F)c4)c3n2)CC1` [Compound 8-48, 1-Methyl-4-((3-(3-(trifluoromethoxy)phenyl)pyrazolo[1,5-a]pyrimidin-5-yl)amino)-trans-cyclohexanol], the IC50 in test [1] (setting [10]) fell in the range of 0.1 to 1 µM.

Consider `CO[C@H]1CC[C@H](Nc2ccn3ncc(-c4cccc(OC(F)(F)F)c4)c3n2)CC1` [Compound 8-49, 4-(trans-Methoxycyclohexyl)-3-(3-(trifluoromethoxy)phenyl)pyrazolo[1,5-a]pyrimidin-5-amine], for which, in test [1] (setting [10]), the IC50 was 0.1 to 1 µM.

As for `FC(F)(F)Oc1cccc(-c2cnn3ccc(NC4CCOCC4)nc23)c1` [Compound 8-50, N-(Tetrahydro-2H-pyran-4-yl)-3-(3-(trifluoromethoxy)phenyl)pyrazolo[1,5-a]pyrimidin-5-amine], in test [1] (setting [10]), the IC50 lay within 0.1 to 1 µM.

For the compound `O=S1(=O)CCC(CNc2ccn3ncc(-c4cccc(OC(F)(F)F)c4)c3n2)CC1` [Compound 8-51, 4-(((3-(3-(Trifluoromethoxy)phenyl)pyrazolo[1,5-a]pyrimidin-5-yl)amino)methyl)tetrahydro-2H-thiopyran 1,1-dioxide], in test [1] (setting [10]), the 50% inhibitory concentration (IC50) lay in the range of 0.1 to 1 µM.

As to `N[C@H]1CC[C@H](Nc2ccn3ncc(-c4cccc(OC(F)(F)F)c4)c3n2)CC1` [Compound 8-52, N-(3-(3-(Trifluoromethoxy)phenyl)pyrazolo[1,5-a]pyrimidin-5-yl)cyclohexane-1,4-trans-diamine], the concentration for half-maximal inhibition (IC50) in test [1] (setting [10]) was under 0.01 µM.

On to `C[C@]1(O)CC[C@H](Nc2ccn3ncc(-c4cccc(C(F)(F)F)c4)c3n2)CC1` [Compound 8-55, 1-Methyl-4-((3-(3-(trifluoromethyl)phenyl)pyrazolo[1,5-a]pyrimidin-5-yl)amino)-trans-cyclohexanol], for which, in test [1] (setting [10]), the IC50 fell in the range of 0.01 to 0.1 µM.

Consider `CC(C)(O)[C@H]1CC[C@H](Nc2ccn3ncc(-c4cccc(C(F)(F)F)c4)c3n2)CC1` [Compound 8-56], for which the half-inhibitory concentration (IC50) in test [1] (setting [10]) was 0.01 to 0.1 µM.

`CO[C@H]1CC[C@H](Nc2ccn3ncc(-c4cccc(C(F)(F)F)c4)c3n2)CC1` [Compound 8-57, 4-(trans-Methoxycyclohexyl)-3-(3-(trifluoromethyl)phenyl)pyrazolo[1,5-a]pyrimidin-5-amine]: in test [1] (setting [10]), the 50% inhibitory concentration (IC50) was in the range of 0.01 to 0.1 µM.

As for `FC(F)(F)c1cccc(-c2cnn3ccc(NC4CCOCC4)nc23)c1` [Compound 8-58, N-(Tetrahydro-2H-pyran-4-yl)-3-(3-(trifluoromethyl)phenyl)pyrazolo[1,5-a]pyrimidin-5-amine], the IC50 in test [1] (setting [10]) fell in the range of 0.1 to 1 µM.

As to `O=S1(=O)CCC(CNc2ccn3ncc(-c4cccc(C(F)(F)F)c4)c3n2)CC1` [Compound 8-59], in test [1] (setting [10]), the IC50 is 0.1 to 1 µM.

Regarding `O=S1(=O)CCN(c2ccn3ncc(-c4cccc(C(F)(F)F)c4)c3n2)CC1` [Compound 8-60], in test [1] (setting [10]), the IC50 was 1 to 5 µM.

Regarding `C[C@]1(O)CC[C@H](Nc2ccn3ncc(-c4cccc(Cl)c4)c3n2)CC1` [Compound 8-62], the IC50 in test [1] (setting [10]) was 0.1 to 1 µM.

As for `CC(C)(O)[C@H]1CC[C@H](Nc2ccn3ncc(-c4cccc(Cl)c4)c3n2)CC1` [Compound 8-63], in test [1] (setting [10]), the half-inhibitory concentration (IC50) lay within 0.01 to 0.1 µM.

Turning to `CO[C@H]1CC[C@H](Nc2ccn3ncc(-c4cccc(Cl)c4)c3n2)CC1` [Compound 8-64], the IC50 in test [1] (setting [10]) lay within 0.01 to 0.1 µM.

As for `Clc1cccc(-c2cnn3ccc(NC4CCOCC4)nc23)c1` [Compound 8-65], the IC50 in test [1] (setting [10]) was 0.1 to 1 µM.

Regarding `O=S1(=O)CCC(CNc2ccn3ncc(-c4cccc(Cl)c4)c3n2)CC1` [Compound 8-66], the IC50 in test [1] (setting [10]) fell in the range of 0.1 to 1 µM.

Take `CN1CCC(CNc2ccn3ncc(-c4cccc(OC(F)(F)F)c4)c3n2)CC1` [Compound 8-67]: in test [1] (setting [10]), the IC50 was in the range of 0.01 to 0.1 µM.

Regarding `N[C@H]1CC[C@H](Nc2ccc3ncc(-c4cccc(Cl)c4)n3n2)CC1` [Compound 8-68], the IC50 in test [1] (setting [10]) is 0.01 to 0.1 µM.
